Earlier results as cited in patent publication US11590077B2, “Fulvestrant formulations and methods of their use” (EAGLE PHARMACEUTICALS, INC., priority 2017, dated 2023).

Settings: background statement

aqueous solubility: extremely low
Compound: C[C@]12CC[C@@H]3c4ccc(O)cc4C[C@@H](CCCCCCCCC[S+]([O-])CCCC(F)(F)C(F)(F)F)[C@H]3[C@@H]1CC[C@@H]2O (stereo partly shown) [Fulvestrant, 7-(9-(4,4,5,5,5-pentafluoropentylsulfinyl)nonyl) estra-1,3,5(10)-triene-3,17-diol]
